Measured values: PMC4503722, “Novel Phenotypic Outcomes Identified for a Public Collection of Approved Drugs from a Publicly Accessible Panel of Assays” (PLoS ONE, 2015)

What follows are compounds tested on endothelial tube formation in co-cultures of ECFCs and ADSCs treated with VEGF (assay: cells). Conditions: Homo sapiens, read-out: Anti-Angiogenesis.
Format: cell-based, human

| SMILES | IC50 [µM] |
| --- | --- |
| CCC(C)n1ncn(-c2ccc(N3CCN(c4ccc(OCC5COC(Cn6cncn6)(c6ccc(Cl)cc6Cl)O5)cc4)CC3)cc2)c1=O (stereo not drawn) [itraconazole] | 1.55 |
| COC(=O)Nc1nc2ccc(C(=O)c3ccccc3)cc2[nH]1 [Mebendazole] | 0.37 |
| CC[C@@H]([C@H](C)O)n1ncn(-c2ccc(N3CCN(c4ccc(OC[C@@H]5CO[C@@](Cn6cncn6)(c6ccc(F)cc6F)C5)cc4)CC3)cc2)c1=O [posaconazole] | 6.46 |

These compounds were tested on nuclear β-catenin in C2C12 cells (assay: cells). Conditions: Mus musculus, C2C12, read-out: Wnt Pathway.
Format: cell-based

| SMILES | EC50 [µM] |
| --- | --- |
| CCC(C)n1ncn(-c2ccc(N3CCN(c4ccc(OCC5COC(Cn6cncn6)(c6ccc(Cl)cc6Cl)O5)cc4)CC3)cc2)c1=O (stereo not drawn) [itraconazole] | > 10 |
| COC(=O)Nc1nc2ccc(C(=O)c3ccccc3)cc2[nH]1 [Mebendazole] | 0.245 |
| CC[C@@H]([C@H](C)O)n1ncn(-c2ccc(N3CCN(c4ccc(OC[C@@H]5CO[C@@](Cn6cncn6)(c6ccc(F)cc6F)C5)cc4)CC3)cc2)c1=O [posaconazole] | 1.63 |

Each compound was assayed on INS-1E cells (assay: cells). Conditions: Rattus norvegicus, INS-1E, read-out: Insulin Secretion.
Format: cell-based, rat

| SMILES | EC50 [µM] |
| --- | --- |
| CCC(C)n1ncn(-c2ccc(N3CCN(c4ccc(OCC5COC(Cn6cncn6)(c6ccc(Cl)cc6Cl)O5)cc4)CC3)cc2)c1=O (stereo not drawn) [itraconazole] | > 10 |
| COC(=O)Nc1nc2ccc(C(=O)c3ccccc3)cc2[nH]1 [Mebendazole] | > 10 |
| CC[C@@H]([C@H](C)O)n1ncn(-c2ccc(N3CCN(c4ccc(OC[C@@H]5CO[C@@](Cn6cncn6)(c6ccc(F)cc6F)C5)cc4)CC3)cc2)c1=O [posaconazole] | > 10 |

The compounds below were run on NCI-H716 cells (assay: cells). Conditions: Homo sapiens, NCI-H716, read-out: GLP 1 Secretion.
Format: cell-based, Human

| SMILES | EC50 [µM] |
| --- | --- |
| CCC(C)n1ncn(-c2ccc(N3CCN(c4ccc(OCC5COC(Cn6cncn6)(c6ccc(Cl)cc6Cl)O5)cc4)CC3)cc2)c1=O (stereo not drawn) [itraconazole] | > 10 |
| COC(=O)Nc1nc2ccc(C(=O)c3ccccc3)cc2[nH]1 [Mebendazole] | > 10 |
| CC[C@@H]([C@H](C)O)n1ncn(-c2ccc(N3CCN(c4ccc(OC[C@@H]5CO[C@@](Cn6cncn6)(c6ccc(F)cc6F)C5)cc4)CC3)cc2)c1=O [posaconazole] | > 10 |

These compounds were tested on HeLa cells (assay: cells). Conditions: Homo sapiens, HeLa, read-out: CellCycle G2/M.
Format: cell-based

| SMILES | EC50 [µM] |
| --- | --- |
| CCC(C)n1ncn(-c2ccc(N3CCN(c4ccc(OCC5COC(Cn6cncn6)(c6ccc(Cl)cc6Cl)O5)cc4)CC3)cc2)c1=O (stereo not drawn) [itraconazole] | > 10 |
| COC(=O)Nc1nc2ccc(C(=O)c3ccccc3)cc2[nH]1 [Mebendazole] | 0.08 |
| CC[C@@H]([C@H](C)O)n1ncn(-c2ccc(N3CCN(c4ccc(OC[C@@H]5CO[C@@](Cn6cncn6)(c6ccc(F)cc6F)C5)cc4)CC3)cc2)c1=O [posaconazole] | > 10 |

The compounds below were run on DLD-1 (assay: cells). Conditions: Homo sapiens, DLD-1, read-out: Basal_Viability ATP DLD-1.
Format: cell-based

| SMILES | IC50 [µM] |
| --- | --- |
| CCC(C)n1ncn(-c2ccc(N3CCN(c4ccc(OCC5COC(Cn6cncn6)(c6ccc(Cl)cc6Cl)O5)cc4)CC3)cc2)c1=O (stereo not drawn) [itraconazole] | > 20 |
| COC(=O)Nc1nc2ccc(C(=O)c3ccccc3)cc2[nH]1 [Mebendazole] | 10.1 |
| CC[C@@H]([C@H](C)O)n1ncn(-c2ccc(N3CCN(c4ccc(OC[C@@H]5CO[C@@](Cn6cncn6)(c6ccc(F)cc6F)C5)cc4)CC3)cc2)c1=O [posaconazole] | > 20 |

Each compound was assayed on SW480 (assay: cells). Conditions: Homo sapiens, SW480, read-out: Basal_Viability ATP SW480.
Format: cell-based

| SMILES | IC50 [µM] |
| --- | --- |
| CCC(C)n1ncn(-c2ccc(N3CCN(c4ccc(OCC5COC(Cn6cncn6)(c6ccc(Cl)cc6Cl)O5)cc4)CC3)cc2)c1=O (stereo not drawn) [itraconazole] | 4.33 |
| COC(=O)Nc1nc2ccc(C(=O)c3ccccc3)cc2[nH]1 [Mebendazole] | > 20 |
| CC[C@@H]([C@H](C)O)n1ncn(-c2ccc(N3CCN(c4ccc(OC[C@@H]5CO[C@@](Cn6cncn6)(c6ccc(F)cc6F)C5)cc4)CC3)cc2)c1=O [posaconazole] | 5.81 |

The compounds below were run on HCT116 (assay: cells). Conditions: Homo sapiens, HCT-116, read-out: Basal_Viability ATP HCT116.
Format: cell-based

| SMILES | IC50 [µM] |
| --- | --- |
| CCC(C)n1ncn(-c2ccc(N3CCN(c4ccc(OCC5COC(Cn6cncn6)(c6ccc(Cl)cc6Cl)O5)cc4)CC3)cc2)c1=O (stereo not drawn) [itraconazole] | 8.85 |
| COC(=O)Nc1nc2ccc(C(=O)c3ccccc3)cc2[nH]1 [Mebendazole] | 8.26 |
| CC[C@@H]([C@H](C)O)n1ncn(-c2ccc(N3CCN(c4ccc(OC[C@@H]5CO[C@@](Cn6cncn6)(c6ccc(F)cc6F)C5)cc4)CC3)cc2)c1=O [posaconazole] | 6.24 |

Each compound was assayed on HCT116 cells treated with a GSK3β inhibitor (assay: cells). Conditions: Homo sapiens, HCT-116, read-out: GSK3b inh pretreated_Viability ATP HCT116.
Format: cell-based

| SMILES | IC50 [µM] |
| --- | --- |
| CCC(C)n1ncn(-c2ccc(N3CCN(c4ccc(OCC5COC(Cn6cncn6)(c6ccc(Cl)cc6Cl)O5)cc4)CC3)cc2)c1=O (stereo not drawn) [itraconazole] | 8.69 |
| COC(=O)Nc1nc2ccc(C(=O)c3ccccc3)cc2[nH]1 [Mebendazole] | > 20 |
| CC[C@@H]([C@H](C)O)n1ncn(-c2ccc(N3CCN(c4ccc(OC[C@@H]5CO[C@@](Cn6cncn6)(c6ccc(F)cc6F)C5)cc4)CC3)cc2)c1=O [posaconazole] | > 20 |

The compounds below were run against T1, hp70S6K1 (RPS6KB1) (Homo sapiens, UniProt P23443) (assay: Cerep LANCE kinase assay hp70S6K1 (S1 assay 31)). Conditions: kinase assay; read-out: p70S6K1.
T1 construct: purchased Cerep (LANCE kinase assay platform, contract assay)
T1 sequence (P23443 whole entry): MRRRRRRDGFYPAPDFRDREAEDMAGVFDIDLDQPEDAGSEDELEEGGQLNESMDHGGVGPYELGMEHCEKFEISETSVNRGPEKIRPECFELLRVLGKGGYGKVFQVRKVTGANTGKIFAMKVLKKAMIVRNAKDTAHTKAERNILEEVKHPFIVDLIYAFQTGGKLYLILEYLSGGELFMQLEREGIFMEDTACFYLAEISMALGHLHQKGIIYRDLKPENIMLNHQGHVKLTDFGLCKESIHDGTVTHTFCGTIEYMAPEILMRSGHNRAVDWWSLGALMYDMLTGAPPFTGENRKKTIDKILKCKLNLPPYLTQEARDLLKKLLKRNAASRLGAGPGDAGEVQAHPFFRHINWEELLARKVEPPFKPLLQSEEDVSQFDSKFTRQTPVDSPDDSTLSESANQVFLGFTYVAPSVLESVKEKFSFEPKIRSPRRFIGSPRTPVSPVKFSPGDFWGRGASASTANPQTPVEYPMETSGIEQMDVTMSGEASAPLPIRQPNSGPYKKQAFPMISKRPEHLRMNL
Format: biochemical

| SMILES | IC50 [µM] |
| --- | --- |
| COC(=O)Nc1nc2ccc(C(=O)c3ccccc3)cc2[nH]1 [Mebendazole] | > 20 |

Same assay, conditions: read-out: p70S6K1

| SMILES | IC50 [µM] |
| --- | --- |
| CCC(C)n1ncn(-c2ccc(N3CCN(c4ccc(OCC5COC(Cn6cncn6)(c6ccc(Cl)cc6Cl)O5)cc4)CC3)cc2)c1=O (stereo not drawn) [itraconazole] | > 20 |
| CC[C@@H]([C@H](C)O)n1ncn(-c2ccc(N3CCN(c4ccc(OC[C@@H]5CO[C@@](Cn6cncn6)(c6ccc(F)cc6F)C5)cc4)CC3)cc2)c1=O [posaconazole] | > 20 |

The compounds below were run against T2, hKDR (Homo sapiens, UniProt P35968) (assay: Cerep LANCE kinase assay hKDR (S1 assay 32)). Conditions: not given.
T2 construct: purchased Cerep (LANCE kinase assay platform, contract assay)
T2 sequence (P35968 20-1356): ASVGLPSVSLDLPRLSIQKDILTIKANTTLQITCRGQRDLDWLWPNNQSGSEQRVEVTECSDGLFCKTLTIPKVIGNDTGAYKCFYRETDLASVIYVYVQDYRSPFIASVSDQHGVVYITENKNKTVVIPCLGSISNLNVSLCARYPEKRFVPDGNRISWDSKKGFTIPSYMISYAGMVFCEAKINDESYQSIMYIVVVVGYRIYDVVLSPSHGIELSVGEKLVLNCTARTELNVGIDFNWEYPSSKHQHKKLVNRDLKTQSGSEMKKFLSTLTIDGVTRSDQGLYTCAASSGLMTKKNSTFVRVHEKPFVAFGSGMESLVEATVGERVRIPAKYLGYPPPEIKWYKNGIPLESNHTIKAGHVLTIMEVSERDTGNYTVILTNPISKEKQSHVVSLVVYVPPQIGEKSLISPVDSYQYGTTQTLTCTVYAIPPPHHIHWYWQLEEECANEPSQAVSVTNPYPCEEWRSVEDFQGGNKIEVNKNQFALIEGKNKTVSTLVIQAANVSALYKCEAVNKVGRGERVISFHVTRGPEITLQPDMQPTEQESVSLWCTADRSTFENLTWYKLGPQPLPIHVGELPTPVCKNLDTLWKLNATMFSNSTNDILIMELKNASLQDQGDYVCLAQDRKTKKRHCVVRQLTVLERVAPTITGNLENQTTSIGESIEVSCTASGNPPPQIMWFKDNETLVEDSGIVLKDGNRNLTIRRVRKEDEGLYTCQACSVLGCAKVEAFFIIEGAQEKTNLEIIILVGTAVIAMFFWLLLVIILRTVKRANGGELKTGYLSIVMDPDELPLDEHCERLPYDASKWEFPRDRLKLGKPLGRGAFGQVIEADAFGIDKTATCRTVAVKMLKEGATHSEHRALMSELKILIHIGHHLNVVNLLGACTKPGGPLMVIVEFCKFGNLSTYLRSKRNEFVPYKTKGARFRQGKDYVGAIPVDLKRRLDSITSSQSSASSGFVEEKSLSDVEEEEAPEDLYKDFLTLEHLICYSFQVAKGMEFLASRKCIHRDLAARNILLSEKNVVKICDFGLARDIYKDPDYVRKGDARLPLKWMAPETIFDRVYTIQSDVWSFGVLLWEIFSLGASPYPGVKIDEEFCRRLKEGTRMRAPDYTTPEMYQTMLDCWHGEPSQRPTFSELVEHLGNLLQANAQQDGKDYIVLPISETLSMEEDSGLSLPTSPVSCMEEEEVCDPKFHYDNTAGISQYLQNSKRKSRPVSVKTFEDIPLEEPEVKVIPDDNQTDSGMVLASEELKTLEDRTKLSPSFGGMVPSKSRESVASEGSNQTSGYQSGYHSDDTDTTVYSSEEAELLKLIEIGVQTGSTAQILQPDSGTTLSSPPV
Format: biochemical

| SMILES | IC50 [µM] |
| --- | --- |
| COC(=O)Nc1nc2ccc(C(=O)c3ccccc3)cc2[nH]1 [Mebendazole] | 1.43 |

Same assay, conditions: read-out: KDR

| SMILES | IC50 [µM] |
| --- | --- |
| CCC(C)n1ncn(-c2ccc(N3CCN(c4ccc(OCC5COC(Cn6cncn6)(c6ccc(Cl)cc6Cl)O5)cc4)CC3)cc2)c1=O (stereo not drawn) [itraconazole] | > 20 |
| CC[C@@H]([C@H](C)O)n1ncn(-c2ccc(N3CCN(c4ccc(OC[C@@H]5CO[C@@](Cn6cncn6)(c6ccc(F)cc6F)C5)cc4)CC3)cc2)c1=O [posaconazole] | > 20 |

These compounds were tested against T3, hJAK2 (Homo sapiens, UniProt O60674) (assay: Cerep LANCE kinase assay hJAK2 (S1 assay 33)). Conditions: kinase assay; read-out: JAK2.
T3 construct: purchased Cerep (LANCE kinase assay platform, contract assay)
T3 sequence (O60674 whole entry): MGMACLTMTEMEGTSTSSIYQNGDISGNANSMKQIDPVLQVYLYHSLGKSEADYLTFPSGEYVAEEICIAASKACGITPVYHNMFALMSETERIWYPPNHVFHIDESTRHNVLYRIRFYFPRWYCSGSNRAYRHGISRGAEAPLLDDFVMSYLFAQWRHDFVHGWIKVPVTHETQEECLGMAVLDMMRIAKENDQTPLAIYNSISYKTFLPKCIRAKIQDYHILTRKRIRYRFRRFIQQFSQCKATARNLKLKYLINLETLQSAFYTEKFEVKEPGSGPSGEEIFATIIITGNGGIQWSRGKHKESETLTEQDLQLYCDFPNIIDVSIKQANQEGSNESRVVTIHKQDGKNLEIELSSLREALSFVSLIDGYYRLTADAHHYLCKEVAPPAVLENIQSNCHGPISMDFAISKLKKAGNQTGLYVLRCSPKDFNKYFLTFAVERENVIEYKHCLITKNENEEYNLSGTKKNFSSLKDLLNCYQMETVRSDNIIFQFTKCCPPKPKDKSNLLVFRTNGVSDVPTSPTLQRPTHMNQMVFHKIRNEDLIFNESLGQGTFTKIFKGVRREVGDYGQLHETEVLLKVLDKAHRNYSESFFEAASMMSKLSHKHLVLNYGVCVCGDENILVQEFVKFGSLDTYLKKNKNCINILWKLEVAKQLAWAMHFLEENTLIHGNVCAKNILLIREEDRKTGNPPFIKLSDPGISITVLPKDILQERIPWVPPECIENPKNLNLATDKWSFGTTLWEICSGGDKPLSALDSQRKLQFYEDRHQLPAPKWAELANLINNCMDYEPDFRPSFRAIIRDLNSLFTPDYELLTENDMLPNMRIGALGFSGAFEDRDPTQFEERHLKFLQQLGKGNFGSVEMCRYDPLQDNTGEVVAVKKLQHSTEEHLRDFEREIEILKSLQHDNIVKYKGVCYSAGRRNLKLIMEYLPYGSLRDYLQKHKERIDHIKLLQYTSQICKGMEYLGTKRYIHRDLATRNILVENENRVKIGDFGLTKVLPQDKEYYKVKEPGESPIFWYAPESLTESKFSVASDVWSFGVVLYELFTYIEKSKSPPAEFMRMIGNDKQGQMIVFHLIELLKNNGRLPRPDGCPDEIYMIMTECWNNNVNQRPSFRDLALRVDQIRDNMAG
Format: biochemical

| SMILES | IC50 [µM] |
| --- | --- |
| COC(=O)Nc1nc2ccc(C(=O)c3ccccc3)cc2[nH]1 [Mebendazole] | > 20 |

Same assay, conditions: read-out: JAK2

| SMILES | IC50 [µM] |
| --- | --- |
| CCC(C)n1ncn(-c2ccc(N3CCN(c4ccc(OCC5COC(Cn6cncn6)(c6ccc(Cl)cc6Cl)O5)cc4)CC3)cc2)c1=O (stereo not drawn) [itraconazole] | > 20 |
| CC[C@@H]([C@H](C)O)n1ncn(-c2ccc(N3CCN(c4ccc(OC[C@@H]5CO[C@@](Cn6cncn6)(c6ccc(F)cc6F)C5)cc4)CC3)cc2)c1=O [posaconazole] | > 20 |

The compounds below were run against T4, hGSK3b (Homo sapiens, UniProt P49841) (assay: Cerep LANCE kinase assay hGSK3b (S1 assay 34)). Conditions: kinase assay; read-out: GSK3b.
T4 construct: purchased Cerep (LANCE kinase assay platform, contract assay)
T4 sequence (P49841 whole entry): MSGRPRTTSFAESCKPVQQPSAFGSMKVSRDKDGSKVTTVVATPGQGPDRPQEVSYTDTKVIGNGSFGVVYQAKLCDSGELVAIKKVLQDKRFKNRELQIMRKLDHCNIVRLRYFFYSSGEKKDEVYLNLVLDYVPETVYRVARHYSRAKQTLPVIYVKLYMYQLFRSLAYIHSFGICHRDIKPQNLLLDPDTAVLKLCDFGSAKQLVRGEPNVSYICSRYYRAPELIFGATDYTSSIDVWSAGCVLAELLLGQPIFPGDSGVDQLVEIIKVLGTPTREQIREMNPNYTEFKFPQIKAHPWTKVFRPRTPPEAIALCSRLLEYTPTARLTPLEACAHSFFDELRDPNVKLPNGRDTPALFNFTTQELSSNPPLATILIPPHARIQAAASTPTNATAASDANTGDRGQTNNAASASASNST
Format: biochemical

| SMILES | IC50 [µM] |
| --- | --- |
| COC(=O)Nc1nc2ccc(C(=O)c3ccccc3)cc2[nH]1 [Mebendazole] | > 20 |

Same assay, conditions: read-out: GSK3b

| SMILES | IC50 [µM] |
| --- | --- |
| CCC(C)n1ncn(-c2ccc(N3CCN(c4ccc(OCC5COC(Cn6cncn6)(c6ccc(Cl)cc6Cl)O5)cc4)CC3)cc2)c1=O (stereo not drawn) [itraconazole] | > 20 |
| CC[C@@H]([C@H](C)O)n1ncn(-c2ccc(N3CCN(c4ccc(OC[C@@H]5CO[C@@](Cn6cncn6)(c6ccc(F)cc6F)C5)cc4)CC3)cc2)c1=O [posaconazole] | > 20 |

These compounds were tested against T5, hFLT3 (Homo sapiens, UniProt P36888) (assay: Cerep LANCE kinase assay hFLT3 (S1 assay 35)). Conditions: kinase assay; read-out: FLT3.
T5 construct: purchased Cerep (LANCE kinase assay platform, contract assay)
T5 sequence (P36888 27-993): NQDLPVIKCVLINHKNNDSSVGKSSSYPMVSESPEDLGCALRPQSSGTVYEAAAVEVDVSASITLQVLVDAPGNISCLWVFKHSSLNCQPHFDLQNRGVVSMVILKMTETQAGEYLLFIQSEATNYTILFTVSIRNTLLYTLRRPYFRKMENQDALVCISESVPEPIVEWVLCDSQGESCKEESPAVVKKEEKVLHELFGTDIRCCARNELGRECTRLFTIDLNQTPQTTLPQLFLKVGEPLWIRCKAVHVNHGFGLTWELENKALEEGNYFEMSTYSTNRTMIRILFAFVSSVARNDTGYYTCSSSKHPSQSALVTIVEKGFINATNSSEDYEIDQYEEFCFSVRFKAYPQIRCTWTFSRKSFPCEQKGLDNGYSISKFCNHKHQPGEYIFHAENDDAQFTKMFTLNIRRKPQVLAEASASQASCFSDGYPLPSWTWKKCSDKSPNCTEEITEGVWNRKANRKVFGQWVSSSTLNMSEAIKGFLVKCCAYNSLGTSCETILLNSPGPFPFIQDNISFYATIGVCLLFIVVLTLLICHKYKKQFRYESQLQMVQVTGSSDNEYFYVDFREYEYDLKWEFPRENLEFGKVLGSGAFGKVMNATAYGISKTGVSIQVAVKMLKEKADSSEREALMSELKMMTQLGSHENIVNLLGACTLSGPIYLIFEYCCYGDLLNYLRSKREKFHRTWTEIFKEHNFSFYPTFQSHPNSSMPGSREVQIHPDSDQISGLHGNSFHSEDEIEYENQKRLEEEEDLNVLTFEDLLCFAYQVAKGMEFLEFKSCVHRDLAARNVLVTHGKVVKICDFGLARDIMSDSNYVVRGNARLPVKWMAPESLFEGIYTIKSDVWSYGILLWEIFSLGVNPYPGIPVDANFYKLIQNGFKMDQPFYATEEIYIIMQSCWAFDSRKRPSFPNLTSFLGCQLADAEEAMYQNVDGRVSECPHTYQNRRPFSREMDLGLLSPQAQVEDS
Format: biochemical

| SMILES | IC50 [µM] |
| --- | --- |
| COC(=O)Nc1nc2ccc(C(=O)c3ccccc3)cc2[nH]1 [Mebendazole] | > 20 |

Same assay, conditions: read-out: FLT3

| SMILES | IC50 [µM] |
| --- | --- |
| CCC(C)n1ncn(-c2ccc(N3CCN(c4ccc(OCC5COC(Cn6cncn6)(c6ccc(Cl)cc6Cl)O5)cc4)CC3)cc2)c1=O (stereo not drawn) [itraconazole] | > 20 |
| CC[C@@H]([C@H](C)O)n1ncn(-c2ccc(N3CCN(c4ccc(OC[C@@H]5CO[C@@](Cn6cncn6)(c6ccc(F)cc6F)C5)cc4)CC3)cc2)c1=O [posaconazole] | > 20 |
